In ChEMBL document CHEMBL1201862, “PubChem BioAssay data set” (2004):
Active and inactive are the calls of the source.

Columns and labels:
Type in all cases: functional
[1] = target: Benomyl/methotrexate resistance protein (Candida albicans, UniProt P28873); assay: CaMdr1 efflux pump inhibitor potency, dose response, singleplex, Cherry Pick1 hits (AID 588608)
[2] = target: T1, Multidrug resistance protein CDR1 (Candida albicans, UniProt P43071); assay: CaCDR1 efflux pump inhibitors in yeast, dose response, S. cerevisiae AD1-8u, singleplex, Cherry Pick1 hits (AID 588606)
[3] = target: T2, Multidrug resistance protein CDR2 (Candida albicans (strain SC5314 / ATCC MYA-2876) (Yeast), UniProt P78595); assay: CaCDR2 efflux pump inhibitors in yeast, dose response, S. cerevisiae AD1-8u, singleplex, Cherry Pick1 hits (AID 588604)
T2 sequence (P78595 whole entry): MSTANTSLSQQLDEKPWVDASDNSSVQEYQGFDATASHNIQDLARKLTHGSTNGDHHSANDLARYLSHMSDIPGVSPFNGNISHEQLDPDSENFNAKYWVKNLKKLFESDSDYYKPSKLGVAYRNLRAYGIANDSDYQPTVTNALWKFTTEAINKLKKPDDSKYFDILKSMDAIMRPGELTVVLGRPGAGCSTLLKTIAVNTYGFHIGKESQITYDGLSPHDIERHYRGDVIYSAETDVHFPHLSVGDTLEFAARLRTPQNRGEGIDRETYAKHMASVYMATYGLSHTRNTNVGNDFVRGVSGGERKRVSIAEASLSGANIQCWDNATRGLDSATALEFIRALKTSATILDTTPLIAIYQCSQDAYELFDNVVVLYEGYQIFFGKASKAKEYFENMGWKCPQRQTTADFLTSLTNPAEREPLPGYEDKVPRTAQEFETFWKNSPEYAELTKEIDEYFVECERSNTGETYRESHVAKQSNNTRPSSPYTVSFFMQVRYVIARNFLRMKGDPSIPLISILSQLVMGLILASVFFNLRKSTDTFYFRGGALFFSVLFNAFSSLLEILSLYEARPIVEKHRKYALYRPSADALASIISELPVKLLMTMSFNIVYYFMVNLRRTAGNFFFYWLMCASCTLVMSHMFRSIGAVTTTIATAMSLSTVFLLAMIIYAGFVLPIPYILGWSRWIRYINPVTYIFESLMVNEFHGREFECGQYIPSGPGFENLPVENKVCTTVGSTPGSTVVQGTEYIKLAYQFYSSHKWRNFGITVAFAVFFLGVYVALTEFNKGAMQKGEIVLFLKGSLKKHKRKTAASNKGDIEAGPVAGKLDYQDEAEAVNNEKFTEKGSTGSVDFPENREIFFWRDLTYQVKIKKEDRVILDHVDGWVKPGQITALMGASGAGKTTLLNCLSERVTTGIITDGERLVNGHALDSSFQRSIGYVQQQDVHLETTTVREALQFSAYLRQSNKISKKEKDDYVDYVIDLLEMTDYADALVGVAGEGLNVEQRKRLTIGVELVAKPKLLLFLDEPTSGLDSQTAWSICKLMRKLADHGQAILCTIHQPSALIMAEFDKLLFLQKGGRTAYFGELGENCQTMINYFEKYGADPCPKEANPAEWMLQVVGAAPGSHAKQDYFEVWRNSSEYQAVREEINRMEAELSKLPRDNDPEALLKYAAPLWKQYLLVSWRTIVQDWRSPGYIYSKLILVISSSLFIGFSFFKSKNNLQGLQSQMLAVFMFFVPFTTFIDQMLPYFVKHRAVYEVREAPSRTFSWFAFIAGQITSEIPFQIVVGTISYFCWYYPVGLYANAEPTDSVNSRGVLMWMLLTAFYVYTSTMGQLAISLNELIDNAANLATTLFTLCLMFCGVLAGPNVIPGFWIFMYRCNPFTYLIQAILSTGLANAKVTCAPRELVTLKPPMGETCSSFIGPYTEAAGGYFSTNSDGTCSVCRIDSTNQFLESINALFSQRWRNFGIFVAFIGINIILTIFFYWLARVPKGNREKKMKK

[4] = target: T1, Multidrug resistance protein CDR1; assay: CaCdr1 efflux pump inhibitor potency, dose response, singleplex, Cherry Pick2 set (AID 623996); conditions: read-out: EC50_MICROM
[5] = target: T2, Multidrug resistance protein CDR2; assay: CaCDR2 efflux pump inhibitors in yeast, dose response, S. cerevisiae AD1-8u, singleplex, Cherry Pick2 set (AID 623994); conditions: read-out: EC50_MICROM
[6] = target: T3, High affinity choline transporter 1 (Homo sapiens, UniProt Q9GZV3); assay: CHT inhibitors, dose response, cell-based, 5-point CRC, membrane potential dye (AID 504840)
T3 sequence (Q9GZV3 whole entry): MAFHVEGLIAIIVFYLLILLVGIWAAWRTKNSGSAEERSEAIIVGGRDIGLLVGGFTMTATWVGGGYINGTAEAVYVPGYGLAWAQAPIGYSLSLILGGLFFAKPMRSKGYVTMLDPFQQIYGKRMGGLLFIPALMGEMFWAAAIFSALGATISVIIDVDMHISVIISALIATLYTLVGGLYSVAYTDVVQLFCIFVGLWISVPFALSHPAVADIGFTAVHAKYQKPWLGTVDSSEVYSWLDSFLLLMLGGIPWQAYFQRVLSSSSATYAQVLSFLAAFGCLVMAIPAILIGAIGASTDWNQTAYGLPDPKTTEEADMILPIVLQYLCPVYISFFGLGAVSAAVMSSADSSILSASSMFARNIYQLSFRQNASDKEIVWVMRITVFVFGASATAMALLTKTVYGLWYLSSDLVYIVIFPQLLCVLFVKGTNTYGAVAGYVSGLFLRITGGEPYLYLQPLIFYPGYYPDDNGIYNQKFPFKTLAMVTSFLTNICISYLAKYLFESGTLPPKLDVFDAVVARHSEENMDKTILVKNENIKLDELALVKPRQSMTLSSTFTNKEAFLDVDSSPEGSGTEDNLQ

[7] = target: T3, High affinity choline transporter 1; assay: CHT inhibitors, dose response, cell-based, 10-point CRC, membrane potential dye (AID 588401);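 note: membrane potential dye fluorescence of choline-evoked depolarization via CHT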

T1 sequence (P43071 whole entry, looked up): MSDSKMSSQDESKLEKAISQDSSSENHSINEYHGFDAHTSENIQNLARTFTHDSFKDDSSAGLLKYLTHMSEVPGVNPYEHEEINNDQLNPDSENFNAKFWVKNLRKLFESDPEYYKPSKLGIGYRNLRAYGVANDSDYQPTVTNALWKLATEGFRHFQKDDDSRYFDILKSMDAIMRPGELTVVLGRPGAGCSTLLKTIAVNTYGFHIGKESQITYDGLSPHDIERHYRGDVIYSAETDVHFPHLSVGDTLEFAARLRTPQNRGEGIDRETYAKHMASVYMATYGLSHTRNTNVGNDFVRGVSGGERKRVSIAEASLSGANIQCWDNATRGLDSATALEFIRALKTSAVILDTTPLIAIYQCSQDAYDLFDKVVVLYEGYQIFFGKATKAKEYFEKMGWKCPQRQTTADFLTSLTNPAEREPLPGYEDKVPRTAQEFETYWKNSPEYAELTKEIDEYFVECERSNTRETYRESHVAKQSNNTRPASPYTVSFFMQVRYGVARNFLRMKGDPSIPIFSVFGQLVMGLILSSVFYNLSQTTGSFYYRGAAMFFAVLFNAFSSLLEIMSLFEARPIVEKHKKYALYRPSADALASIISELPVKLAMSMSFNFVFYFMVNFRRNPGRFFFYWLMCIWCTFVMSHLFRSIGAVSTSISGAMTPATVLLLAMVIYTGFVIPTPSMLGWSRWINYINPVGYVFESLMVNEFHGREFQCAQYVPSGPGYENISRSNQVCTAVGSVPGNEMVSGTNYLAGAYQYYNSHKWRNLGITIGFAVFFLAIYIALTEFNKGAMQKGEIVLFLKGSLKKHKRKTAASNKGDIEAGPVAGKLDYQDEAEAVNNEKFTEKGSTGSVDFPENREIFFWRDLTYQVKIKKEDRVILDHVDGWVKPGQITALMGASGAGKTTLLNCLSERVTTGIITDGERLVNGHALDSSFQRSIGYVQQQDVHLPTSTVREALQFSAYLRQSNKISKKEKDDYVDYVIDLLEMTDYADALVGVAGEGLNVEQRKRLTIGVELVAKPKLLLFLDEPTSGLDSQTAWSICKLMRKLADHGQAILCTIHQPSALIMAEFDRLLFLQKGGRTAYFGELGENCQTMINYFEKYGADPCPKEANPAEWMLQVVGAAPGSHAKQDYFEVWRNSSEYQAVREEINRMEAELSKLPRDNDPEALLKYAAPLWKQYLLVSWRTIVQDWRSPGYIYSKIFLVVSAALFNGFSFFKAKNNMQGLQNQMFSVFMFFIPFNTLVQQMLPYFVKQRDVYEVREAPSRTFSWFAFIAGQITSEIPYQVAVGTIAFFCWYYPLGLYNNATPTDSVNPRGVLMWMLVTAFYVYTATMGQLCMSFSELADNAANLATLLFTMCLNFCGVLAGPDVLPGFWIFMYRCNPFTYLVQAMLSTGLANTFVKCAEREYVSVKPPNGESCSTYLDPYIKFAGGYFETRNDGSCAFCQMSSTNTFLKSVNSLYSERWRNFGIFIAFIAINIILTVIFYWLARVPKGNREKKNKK
Chain of Benomyl/methotrexate resistance protein (P28873 whole entry): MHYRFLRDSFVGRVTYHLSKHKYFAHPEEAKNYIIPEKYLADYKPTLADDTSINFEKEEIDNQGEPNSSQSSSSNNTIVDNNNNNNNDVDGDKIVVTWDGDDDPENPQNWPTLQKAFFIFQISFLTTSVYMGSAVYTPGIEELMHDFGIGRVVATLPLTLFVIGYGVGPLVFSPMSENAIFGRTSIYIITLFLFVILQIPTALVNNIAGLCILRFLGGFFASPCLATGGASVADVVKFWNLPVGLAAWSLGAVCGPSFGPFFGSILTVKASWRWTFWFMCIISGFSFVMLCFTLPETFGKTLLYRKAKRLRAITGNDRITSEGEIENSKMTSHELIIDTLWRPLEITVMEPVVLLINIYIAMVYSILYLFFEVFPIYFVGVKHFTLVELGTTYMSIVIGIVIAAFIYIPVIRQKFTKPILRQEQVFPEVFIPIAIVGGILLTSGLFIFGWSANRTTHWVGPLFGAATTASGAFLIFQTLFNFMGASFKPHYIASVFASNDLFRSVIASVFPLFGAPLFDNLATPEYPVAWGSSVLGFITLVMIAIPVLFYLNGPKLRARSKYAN

IC50 [6]	IC50 [7]	Structure (SMILES)	EC50 [1]	EC50 [2]	EC50 [3]	EC50 [4]	EC50 [5]
–	–	COc1ccc2sc(-c3ccccc3OC)c(-c3ccc(OCCN(C)C)cc3)c2c1	10.5 µM (active)	13.3 µM (active)	10.2 µM (active)	20.1 µM (active)	5.43 µM (active)
1.45 µM (active)	0.501 µM (active)	CCOCCCNS(=O)(=O)c1ccc(NC(=O)c2ccc([N+](=O)[O-])cc2Cl)cc1	–	–	–	–	–
